This note sets out measurements from PubChem BioAssay (NCI).

Where “and” joins values, the source holds several entries; their conditions need not be identical. Identical values can stand only once.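 In this assay, cells in 96-well plates receive the compound at five concentrations for 48 hours. Endpoints are linearly interpolated between the surrounding concentrations. Abbreviation: GI50, concentration required for 50% inhibition of growth. TGI is the concentration that stops growth completely.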 A value given as a limit tells only on which side of the number the result lay.

Common to all, as to test: NCI tumour cell line growth inhibition, 48 h
Test [1] concerns CCRF-CEM leukemia.
Test [2] relates to DU-145 prostate.
The test system of test [3] is HCT-116 colon.
Test [4] concerns OVCAR-3 ovarian.
In test [5] the test system is RPMI-8226 leukemia.
For test [6], the system named is SF-539 CNS.
Test [7] has as its system SK-MEL-2 melanoma.
The subject of test [8] is SK-MEL-28 melanoma.
Test [9] concerns SK-MEL-5 melanoma.
Test [10] relates to SNB-75 CNS.

With `Nc1n[nH]c2ccc([C@H]3[C@@H]4C5CCC(C5)[C@@H]4c4c(ccc5[nH]ncc45)N3S(=O)(=O)C3CC3)cc12` (stereo not given in full), the GI50 in test [1] was 0.168 µM; in test [2], 0.212 µM; in test [3] it was 0.195 µM; in test [4], 0.181 µM; in test [5], 0.176 µM; in test [6], 0.135 µM. For the same molecule, the GI50 is 0.343 µM in test [7], 2 µM in [8], 0.251 µM in test [9] and 0.138 µM in test [10]. Besides, the TGI in test [1] was more than 21.3 µM; in [2], 26.7 µM; in test [3], more than 9.99 µM; in [4], 7.16 µM; in test [5], 7.46 µM; in [6] it was 0.484 µM. The TGI in test [7] stood at 14.5 µM; in test [8], 26 µM; in test [9] it was 1.29 µM; in [10], 2.42 µM.
On to `Nc1ncnc2occ(-c3ccc(NC(=O)Nc4cc(C(F)(F)F)ccc4F)cc3)c12`, for which the GI50 in test [1] was 7.55 µM and 1.58 µM; in [2], 7.01 µM and 2.68 µM; in test [3], 5.2 µM and 1.51 µM; in [4] it was 5.44 µM and 3.61 µM; in [5], 6.29 µM and 5.04 µM; in test [6] it was 2.78 µM and 1.09 µM. Besides, the GI50 in test [7] is 6.25 µM and 3.36 µM; in [8], 5.73 µM and 4.57 µM; in [9] it was 3.56 µM and 3.57 µM; in test [10] it was 3.87 µM and 3.93 µM. The TGI in test [1] was 22.8 µM and > 25 µM; in [2], 21.1 µM and 9.28 µM; in test [3], 16.8 µM and 9.61 µM; in [4] it was 12.1 µM and 9.52 µM; in [5], 17.7 µM and 16.2 µM; in test [6], 8.79 µM and 6.45 µM. Also, the TGI in [7] was 12.3 µM and 8.36 µM; in test [8] it was 14.3 µM and 11.5 µM; in [9], 7.02 µM and 6.93 µM; in [10] it was 9.56 µM and 10.3 µM.
Regarding `COc1ccc(/C=C/C(=O)c2ccc(B(O)O)cc2)cc1O`, the GI50 in test [1] was 7.23 µM; in [2] it was 6.21 µM; in test [3], 2.64 µM; in test [4] it was 7.27 µM; in test [5], 3.27 µM; in test [6], 12.5 µM. Moreover, the GI50 in test [7] was 26.1 µM; in [8], 22.3 µM; in test [9], 14.6 µM; in [10], 9.9 µM. Moreover, the TGI in test [1] is 44.4 µM; in [2], 28.9 µM; in [3] it was 10.1 µM; in test [4], 20.1 µM; in [5], 23 µM; in [6], more than 79.6 µM. For the same molecule, the TGI in [7] was 64.9 µM; in test [8] it was more than 89.5 µM; in test [9] it was 37.5 µM; in [10], 31.2 µM.
As to `CCOC(=O)Nc1nc(-c2ccccc2)c(C)s1`, the TGI in test [1], in [2], in [3], in test [4], in test [5] and in test [6] was more than 100 µM in each case. Moreover, the TGI in test [7], in [8], in [9] and in [10] was more than 100 µM throughout.
As to `CC(=O)N[C@@H](Cc1ccc(OP(=O)(O)O)cc1)C(=O)N[C@H]1CCC(=O)N2CCC[C@@H](C(=O)NCc3cccc4ccccc34)N2C1=O`, the GI50 in test [1], in [2], in test [3], in test [4], in [5] and in test [6] was more than 25 µM in each case. Also, the GI50 in [7], in test [8], in [9] and in [10] was more than 25 µM each time. Besides, the TGI in test [1], in [2], in test [3], in test [4], in test [5] and in [6] was more than 25 µM throughout. Besides, the TGI in [7], in [8], in test [9] and in test [10] was more than 25 µM in each case.
`CCN1C2=C(SC(=S)C1=C1SC(C(=O)c3ccccc3)=C(C(=O)c3ccccc3)S1)SC(=Nc1ccccc1)C2=O`: the GI50 is 0.633 µM in [1]; 24.6 µM in test [2]; 2.66 µM in [3]; 30.9 µM in test [4]; 2.13 µM in test [5]; 14.4 µM in test [6]. Moreover, the GI50 was 7.74 µM in [7], 26.4 µM in [8], more than 70.8 µM in test [9] and 12.6 µM in [10]. The TGI in test [1] is more than 100 µM; in test [2] it was more than 100 µM; in [3], 38.7 µM; in test [4] it was more than 100 µM; in [5] it was more than 100 µM; in test [6], more than 100 µM. The TGI is more than 47.3 µM in test [7], more than 100 µM in [8], more than 100 µM in test [9] and more than 63.4 µM in test [10].
Consider `N#C/C(=C\c1ccc([N+](=O)[O-])cc1)n1nnc2cc(F)c(F)cc21`, for which the GI50 in test [1] is 1.94 µM; in [2], 1.72 µM; in test [3], 1.54 µM; in test [4], 1.85 µM; in [5], 2.42 µM; in [6], 1.74 µM. Moreover, the GI50 in test [7] is 2.32 µM; in [8], 2.26 µM; in [9], 1.89 µM; in test [10], 1.52 µM. Also, the TGI was 21.9 µM in test [1]; 3.14 µM in test [2]; 3.01 µM in [3]; 3.58 µM in test [4]; 6.67 µM in [5]; 3.27 µM in test [6]. Besides, the TGI in test [7] stood at 5.58 µM; in test [8], 4.97 µM; in test [9], 3.69 µM; in test [10], 3.02 µM.
